Measured values from article PMC8022858, “Discovery of bone morphogenetic protein 7-derived peptide sequences that attenuate the human osteoarthritic chondrocyte phenotype” (Molecular Therapy. Methods & Clinical Development, 2021).

Test system: primary human OA articular chondrocytes (OA-HACs)
Assay: BMP7 peptide library screening, quantitative real-time PCR of OA chondrocyte phenotype genes
Type: cell-based
Conditions: for expression of SOX9, COL2A1, and NKX3-2 mRNA / expression of RUNX2, COL10A1, ALPL, MMP13, ADAMTS5, COX-2, and IL6 mRNA: 24 h, 1, 10, 100 or 1,000 nM peptide, normalized to 28S rRNA; for expression of SOX9, COL2A1, and NKX3-2 mRNA: relative to control (Figure 2A); for expression of RUNX2, COL10A1, ALPL, MMP13, ADAMTS5, COX-2, and IL6 mRNA: relative to control (Figures 2B, 2C); for concentration range of bioactivity / COL10A1 mRNA expression: 24 h; for concentration range of bioactivity: concentration series 1-1,000 nM; for COL10A1 mRNA expression: pool of 18 OA-HACs, 100 nM peptide, versus control (Figure 1B)
Excerpt: To investigate whether BMP7 harbors potential peptide sequences that improve the OA chondrocyte phenotype, a peptide library was designed from the mature 139 amino acid-long human BMP7 sequence (Table S2). The peptide library was designed as 20-mer peptides with 2 amino acid intervals (18 amino acid overlap) between individual peptides and with all cysteine residues substituted by serine residues to avoid uncontrolled oxidation of cysteine groups. This yielded 61 individual peptides covering the complete mature human BMP7 sequence (Figure 1A). The peptide library was screened using a pool of primary human OA articular chondrocytes (OA-HACs) from 18 individual donors. Prior to pooling, individual OA-HAC isolates were tested for their responsiveness to BMP7 (Figure S1). The screening was conducted by exposing the OA-HAC pool for 24 h to a concentration series (1, 10, 100, or 1,000 nM) of each peptide from the library. […] This is defined as reduced expression of collagen type X alpha 1 chain (COL10A1), alkaline phosphatase (ALPL), Runt-related transcription factor 2 (RUNX2), ADAMTS5, MMP13, prostaglandin-endoperoxide synthase 2 or cyclooxygenase-2 (COX-2), and interleukin 6 (IL6) and increased expression of SRY-box transcription factor 9 (SOX9), COL2A1, and NKX3-2. […] Representative peptides inducing the above gene expression characteristics in OA-HACs were selected from both regions for further investigation. These were peptide p[63−82] and p[113−132] from the library, covering amino acids 63−82 and 113−132 of the mature BMP7 amino acid sequence. The complete quantitative real-time PCR data for peptides p[63−82] and p[113−132] […] For the two candidate peptides, we validated data using an independent cohort of three OA-HACs exposed to 100 nM of p[63−82] or p[113−132] or a combination of both peptides. […] Taken together, two regions in BMP7 were identified delivering peptide sequences that are able to improve the OA chondrocyte phenotype.
Figure 1 BMP7 peptide library screening on primary human OA articular chondrocytes (OA-HACs) (A) Schematic representation of the design of the human BMP7 peptide library. (B) COL10A1 mRNA expression in samples from the library screening on a pool of 18 OA-HACs individually exposed for 24 h to the peptides (100 nM) in the library. Data are shown as compared to the control condition (white bar) and full-length BMP7 (1 nM; gray bar). The two blue bars represent candidate peptides p[63−82] and p[113−132]. […] Error bars represent mean ± SEM, and statistical significance for peptide condition or BMP7 versus control condition as determined by unpaired two-tailed Student’s t test is represented as ∗p < 0.05, ∗∗p < 0.01, and ∗∗∗p < 0.001; NS, not significant.
Figure 2 Bioactivity of BMP7-derived peptides p[63−82] and p[113−132] on OA-HACs Complete peptide library screening quantitative real-time PCR dataset for peptides p[63−82] and p[113−132] is presented. (A) SOX9, COL2A1, and NKX3-2 mRNA expression in the 18 OA-HAC pool exposed to 1,000, 100, 10, or 1 nM of peptide p[63−82] and p[113−132] is shown and presented relative to control (black bars) and alongside full-length BMP7 (white bars). (B) Similar to (A) but for chondrocyte hypertrophy-associated genes RUNX2, COL10A1, and ALPL. (C) Similar to (A) but for cartilage extracellular matrix remodeling-associated genes MMP13 and ADAMTS5 and inflammation-related genes COX-2 and IL-6. (D) Glycosaminoglycan (GAG) content (normalized to total protein content) on an independent cohort of three individual OA-HAC donors treated with 100 nM peptides p[63−82] and p[113−132] for 24 h. (E) Alkaline phosphatase (ALP) activity (normalized to total protein content) in similar samples from (D). (F) Prostaglandin E2 (PGE2) levels in culture supernatant in similar samples from (D). […]

Substance	chondrocyte COX-2, IL-6, and PGE2 levels (full-length BMP7 1 nM, OA-HACs)	expression of SOX9, COL2A1, and NKX3-2 mRNA (pool of 18 OA-HAC donors)	expression of RUNX2, COL10A1, ALPL, MMP13, ADAMTS5, COX-2, and IL6 mRNA (pool of 18 OA-HAC donors)	concentration range of bioactivity (pool of 18 OA-HAC donors)	COL10A1 mRNA expression	sequence specificity: expression of COL2A1, RUNX2, COL10A1, and COX-2 (pool of 18 OA-HAC donors, scrambled peptides 100 nM, 24 h (Figure 2G))
BMP7: full-length recombinant bone morphogenetic protein 7 (R&D Systems), used at 1 nM	attenuation					
H-AAYYSEGESAFPLNSYMNAT-OH [p[63−82]]		induced	inhibited	low nanomolar range	significantly downregulated	
H-SEASPAMYYLNATANFYESG-OH [scrambled p[63−82], scrambled version of peptide p[63−82], reference compound]						neither one of them was able to recapitulate the bioactivity
H-SVLYFDDSSNVILKKYRNMV-OH [p[113−132]]		induced	inhibited	low nanomolar range	significantly downregulated	
